From patent US20080161232A1, “C5a Receptor Antagonist” (JERINI AG, priority 2005, published 2008)
Starred links: 1 amine or outer side, 2 acyl side, 3 side chain; linkers in the order of their positions; H or OH if unused. Non-standard residues stand in square brackets, D forms with d. Residues, ends and D or L forms follow the SMILES beside them. *: point of attachment. Phe(4-guanidino) = N=C(N)Nc1ccc(C[C@H](N)C(=O)O)cc1; X2 = O=C([C@H](CCCN(C1=NCCN1)C1=NCCN1)N[*:1])[*:2]; Orn(2-imidazolinyl) = N[C@@H](CCCNC1=NCCN1)C(=O)O; X7 = CC(=O)NCS(=O)(=O)C[C@H](N[*:1])C(=O)[*:2]; Phe(3-Cl) = N[C@@H](Cc1cccc(Cl)c1)C(=O)O; X3 = O=C([C@H](CCNC1=NCCN1)N[*:1])[*:2]; X4 = O=C([C@H](CNC1=NCCN1)N[*:1])[*:2]; X5 = CCN(CC)CCC[C@H](N[*:1])C(=O)[*:2]; Bta = N[C@@H](Cc1csc2ccccc12)C(=O)O; Hyp = O=C(O)[C@@H]1C[C@@H](O)CN1; d(hLeu) = CC(C)CC[C@@H](N)C(=O)O; hArg = N=C(N)NCCCC[C@H](N)C(=O)O; Cit = NC(=O)NCCC[C@H](N)C(=O)O; dCha = N[C@H](CC1CCCCC1)C(=O)O; Agb = N=C(N)NCC[C@H](N)C(=O)O; Orn = NCCC[C@H](N)C(=O)O; Aze = O=C(O)[C@@H]1CCN1; Dab = NCC[C@H](N)C(=O)O; Dap = NC[C@H](N)C(=O)O; Ms = CS(=O)(=O)*

The compounds below were run against T1, human C5aR(CD88) (Homo sapiens, UniProt P21730) (assay: Determination of the IC50 value in an enzyme release assay (functional assay, antagonistic activity)). Conditions: antagonistic activity; IC50 group in enzyme release assay, RBL cells expressing human C5aR(CD88); read-out: activity (group).
T1 construct: expressed in transfected cells; host or cells: rat basophilic leukemia cells (RBL)
T1 sequence (P21730 1-350): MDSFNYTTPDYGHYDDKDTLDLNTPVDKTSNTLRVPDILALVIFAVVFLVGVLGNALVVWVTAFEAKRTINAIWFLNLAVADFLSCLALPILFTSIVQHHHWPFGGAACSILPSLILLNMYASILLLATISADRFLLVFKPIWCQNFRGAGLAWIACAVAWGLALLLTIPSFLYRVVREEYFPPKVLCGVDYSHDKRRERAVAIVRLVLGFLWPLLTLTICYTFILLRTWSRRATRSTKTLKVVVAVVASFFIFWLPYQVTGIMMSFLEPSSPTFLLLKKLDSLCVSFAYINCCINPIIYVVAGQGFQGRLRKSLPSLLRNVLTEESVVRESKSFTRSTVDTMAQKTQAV
Type: cell-based

SMILES | IC50 [nM]
CC(=O)N[C@@H](Cc1ccccc1)C(=O)N[C@@H](C)C(=O)N1CCC[C@H]1C(=O)N[C@H](CC1CCCCC1)C(=O)N[C@@H](Cc1csc2ccccc12)C(=O)N[C@@H](Cc1ccccc1)C(N)=O [Compound 206, Ac-Phe-Ala-Pro-cha-Bta-Phe-NH2] (Ac-FAP[dCha][Bta]F-NH2) | 50 to 200
CC(=O)N[C@@H](Cc1ccccc1)C(=O)N[C@@H](CCCNC(=N)N)C(=O)N1CCC[C@H]1C(=O)N[C@H](CCC(C)C)C(=O)N[C@@H](Cc1csc2ccccc12)C(=O)N[C@@H](Cc1ccccc1)C(N)=O [Compound 207, Ac-Phe-Arg-Pro-hle-Bta-Phe-NH2] (Ac-FRP[d(hLeu)][Bta]F-NH2) | 50 to 200
CC(=O)N[C@@H](Cc1ccccc1)C(=O)N[C@@H](CCCNC(=N)N)C(=O)N1CCC[C@H]1C(=O)N[C@H](CCC(C)C)C(=O)N[C@@H](Cc1cccc(Cl)c1)C(=O)N[C@@H](Cc1ccccc1)C(N)=O [Compound 208, Ac-Phe-Arg-Pro-hle-Mcf-Phe-NH2] (Ac-FRP[d(hLeu)][Phe(3-Cl)]F-NH2) | 50 to 200
CC(=O)N[C@@H](Cc1ccccc1)C(=O)N[C@@H](CCCNC(N)=O)C(=O)N1C[C@H](O)C[C@H]1C(=O)N[C@H](CCC(C)C)C(=O)N[C@@H](Cc1csc2ccccc12)C(=O)N[C@@H](Cc1ccccc1)C(N)=O [Compound 209, Ac-Phe-Cit-Hyp-hle-Bta-Phe-NH2] (Ac-F[Cit][Hyp][d(hLeu)][Bta]F-NH2) | 50 to 200
CC(=O)N[C@@H](Cc1ccccc1)C(=O)N[C@@H](CCCNC(N)=O)C(=O)N1CCC[C@H]1C(=O)N[C@H](CC1CCCCC1)C(=O)N[C@@H](Cc1csc2ccccc12)C(=O)N[C@@H](Cc1ccccc1)C(N)=O [Compound 210, Ac-Phe-Cit-Pro-cha-Bta-Phe-NH2] (Ac-F[Cit]P[dCha][Bta]F-NH2) | 50 to 200
CC(=O)N[C@@H](Cc1ccccc1)C(=O)N[C@@H](CCCNC(N)=O)C(=O)N1CCC[C@H]1C(=O)N[C@H](CCC(C)C)C(=O)N[C@@H](Cc1csc2ccccc12)C(=O)N[C@@H](Cc1ccccc1)C(N)=O [Compound 211, Ac-Phe-Cit-Pro-hle-Bta-Phe-NH2] (Ac-F[Cit]P[d(hLeu)][Bta]F-NH2) | 20 to 50
CC(=O)N[C@@H](Cc1ccccc1)C(=O)N[C@@H](CCCNC(N)=O)C(=O)N[C@@H](CO)C(=O)N[C@H](CCC(C)C)C(=O)N[C@@H](Cc1csc2ccccc12)C(=O)N[C@@H](Cc1ccccc1)C(N)=O [Compound 212, Ac-Phe-Cit-Ser-hle-Bta-Phe-NH2] (Ac-F[Cit]S[d(hLeu)][Bta]F-NH2) | 50 to 200
CC(=O)N[C@@H](Cc1ccccc1)C(=O)N[C@@H](CCN)C(=O)N1CC[C@H]1C(=O)N[C@H](CC1CCCCC1)C(=O)N[C@@H](Cc1csc2ccccc12)C(=O)N[C@@H](Cc1ccccc1)C(N)=O [Compound 213, Ac-Phe-Dab-Aze-cha-Bta-Phe-NH2] (Ac-F[Dab][Aze][dCha][Bta]F-NH2) | 20 to 50
CC(=O)N[C@@H](Cc1ccccc1)C(=O)N[C@@H](CCN)C(=O)N1CC[C@H]1C(=O)N[C@H](CCC(C)C)C(=O)N[C@@H](Cc1csc2ccccc12)C(=O)N[C@@H](Cc1ccccc1)C(N)=O [Compound 214, Ac-Phe-Dab-Aze-hle-Bta-Phe-NH2] (Ac-F[Dab][Aze][d(hLeu)][Bta]F-NH2) | 20 to 50
CC(=O)N[C@@H](Cc1ccccc1)C(=O)N[C@@H](CCN)C(=O)N1CCC[C@H]1C(=O)N[C@H](CC1CCCCC1)C(=O)N[C@@H](Cc1csc2ccccc12)C(=O)N[C@@H](Cc1ccccc1)C(N)=O [Compound 215, Ac-Phe-Dab-Pro-cha-Bta-Phe-NH2] (Ac-F[Dab]P[dCha][Bta]F-NH2) | 10 to 20
CC(=O)N[C@@H](Cc1ccccc1)C(=O)N[C@@H](CN)C(=O)N1CCC[C@H]1C(=O)N[C@H](CC1CCCCC1)C(=O)N[C@@H](Cc1csc2ccccc12)C(=O)N[C@@H](Cc1ccccc1)C(N)=O [Compound 216, Ac-Phe-Dap-Pro-cha-Bta-Phe-NH2] (Ac-F[Dap]P[dCha][Bta]F-NH2) | 50 to 200
CC(=O)NCS(=O)(=O)C[C@H](NC(=O)[C@H](Cc1ccccc1)NC(C)=O)C(=O)N1CCC[C@H]1C(=O)N[C@H](CC1CCCCC1)C(=O)N[C@@H](Cc1csc2ccccc12)C(=O)N[C@@H](Cc1ccccc1)C(N)=O [Compound 218, Ac-Phe-Eep-Pro-cha-Bta-Phe-NH2] (Ac-F[X7]P[dCha][Bta]F-NH2) | 50 to 200
CC(=O)N[C@@H](Cc1ccccc1)C(=O)N[C@@H](CCNC1=NCCN1)C(=O)N1CC[C@H]1C(=O)N[C@H](CC1CCCCC1)C(=O)N[C@@H](Cc1csc2ccccc12)C(=O)N[C@@H](Cc1ccccc1)C(N)=O [Compound 219, Ac-Phe-Fcn-Aze-cha-Bta-Phe-NH2] (Ac-F[X3][Aze][dCha][Bta]F-NH2) | 10 to 20
CC(=O)N[C@@H](Cc1ccccc1)C(=O)N[C@@H](CCNC1=NCCN1)C(=O)N1CCC[C@H]1C(=O)N[C@H](CC1CCCCC1)C(=O)N[C@@H](Cc1csc2ccccc12)C(=O)N[C@@H](Cc1ccccc1)C(N)=O [Compound 220, Ac-Phe-Fcn-Pro-cha-Bta-Phe-NH2] (Ac-F[X3]P[dCha][Bta]F-NH2) | 10 to 20
CC(=O)N[C@@H](Cc1ccccc1)C(=O)N[C@@H](CNC1=NCCN1)C(=O)N1CCC[C@H]1C(=O)N[C@H](CC1CCCCC1)C(=O)N[C@@H](Cc1csc2ccccc12)C(=O)N[C@@H](Cc1ccccc1)C(N)=O [Compound 222, Ac-Phe-Fco-Pro-cha-Bta-Phe-NH2] (Ac-F[X4]P[dCha][Bta]F-NH2) | 50 to 200
CC(=O)N[C@@H](Cc1ccccc1)C(=O)N[C@@H](CCCN(C1=NCCN1)C1=NCCN1)C(=O)N1CC[C@H]1C(=O)N[C@H](CC1CCCCC1)C(=O)N[C@@H](Cc1csc2ccccc12)C(=O)N[C@@H](Cc1ccccc1)C(N)=O [Compound 223, Ac-Phe-Fcp-Aze-cha-Bta-Phe-NH2] (Ac-F[X2][Aze][dCha][Bta]F-NH2) | 20 to 50
CC(=O)N[C@@H](Cc1ccccc1)C(=O)N[C@@H](CCCNC1=NCCN1)C(=O)N1CC[C@H]1C(=O)N[C@H](CC1CCCCC1)C(=O)N[C@@H](Cc1csc2ccccc12)C(=O)N[C@@H](Cc1ccccc1)C(N)=O [Compound 224, Ac-Phe-Ffa-Aze-cha-Bta-Phe-NH2] (Ac-F[Orn(2-imidazolinyl)][Aze][dCha][Bta]F-NH2) | 20 to 50
CC(=O)N[C@@H](Cc1ccccc1)C(=O)N[C@@H](CCCNC1=NCCN1)C(=O)N1CCC[C@H]1C(=O)N[C@H](CC1CCCCC1)C(=O)N[C@@H](Cc1csc2ccccc12)C(=O)N[C@@H](Cc1ccccc1)C(N)=O [Compound 225, Ac-Phe-Ffa-Pro-cha-Bta-Phe-NH2] (Ac-F[Orn(2-imidazolinyl)]P[dCha][Bta]F-NH2) | 20 to 50
CC(=O)N[C@@H](Cc1ccccc1)C(=O)N[C@@H](CCCNC1=NCCN1)C(=O)N1CCC[C@H]1C(=O)N[C@H](CCC(C)C)C(=O)N[C@@H](Cc1csc2ccccc12)C(=O)N[C@@H](Cc1ccccc1)C(N)=O [Compound 226, Ac-Phe-Ffa-Pro-hle-Bta-Phe-NH2] (Ac-F[Orn(2-imidazolinyl)]P[d(hLeu)][Bta]F-NH2) | 10 to 20
CC(=O)N[C@@H](Cc1ccccc1)C(=O)N[C@@H](CCCNS(C)(=O)=O)C(=O)N1CCC[C@H]1C(=O)N[C@H](CC1CCCCC1)C(=O)N[C@@H](Cc1csc2ccccc12)C(=O)N[C@@H](Cc1ccccc1)C(N)=O [Compound 227, Ac-Phe-G23-Pro-cha-Bta-Phe-NH2] (Ac-F[Orn](Ms)P[dCha][Bta]F-NH2) | 50 to 200
CC(=O)N[C@@H](Cc1ccccc1)C(=O)N[C@@H](Cc1ccc(NC(=N)N)cc1)C(=O)N1CCC[C@H]1C(=O)N[C@H](CC1CCCCC1)C(=O)N[C@@H](Cc1csc2ccccc12)C(=O)N[C@@H](Cc1ccccc1)C(N)=O [Compound 228, Ac-Phe-Guf-Pro-cha-Bta-Phe-NH2] (Ac-F[Phe(4-guanidino)]P[dCha][Bta]F-NH2) | 20 to 50
CC(=O)N[C@@H](Cc1ccccc1)C(=O)N[C@@H](CCCCNC(=N)N)C(=O)N1CC[C@H]1C(=O)N[C@H](CC1CCCCC1)C(=O)N[C@@H](Cc1csc2ccccc12)C(=O)N[C@@H](Cc1ccccc1)C(N)=O [Compound 229, Ac-Phe-Har-Aze-cha-Bta-Phe-NH2] (Ac-F[hArg][Aze][dCha][Bta]F-NH2) | 10 to 20
CC(=O)N[C@@H](Cc1ccccc1)C(=O)N[C@@H](Cc1c[nH]cn1)C(=O)N1CCC[C@H]1C(=O)N[C@H](CC1CCCCC1)C(=O)N[C@@H](Cc1csc2ccccc12)C(=O)N[C@@H](Cc1ccccc1)C(N)=O [Compound 230, Ac-Phe-His-Pro-cha-Bta-Phe-NH2] (Ac-FHP[dCha][Bta]F-NH2) | 50 to 200
CC(=O)N[C@@H](Cc1ccccc1)C(=O)N[C@@H](CCNC(=N)N)C(=O)N1CCC[C@H]1C(=O)N[C@H](CC1CCCCC1)C(=O)N[C@@H](Cc1csc2ccccc12)C(=O)N[C@@H](Cc1ccccc1)C(N)=O [Compound 231, Ac-Phe-L22-Pro-cha-Bta-Phe-NH2] (Ac-F[Agb]P[dCha][Bta]F-NH2) | 10 to 20
CC(=O)NCCC[C@H](NC(=O)[C@H](Cc1ccccc1)NC(C)=O)C(=O)N1CCC[C@H]1C(=O)N[C@H](CC1CCCCC1)C(=O)N[C@@H](Cc1csc2ccccc12)C(=O)N[C@@H](Cc1ccccc1)C(N)=O [Compound 232, Ac-Phe-OrA-Pro-cha-Bta-Phe-NH2] (Ac-F[Orn](Ac)P[dCha][Bta]F-NH2) | 50 to 200
CCN(CC)CCC[C@H](NC(=O)[C@H](Cc1ccccc1)NC(C)=O)C(=O)N1CCC[C@H]1C(=O)N[C@H](CC1CCCCC1)C(=O)N[C@@H](Cc1csc2ccccc12)C(=O)N[C@@H](Cc1ccccc1)C(N)=O [Compound 233, Ac-Phe-OrE-Pro-cha-Bta-Phe-NH2] (Ac-F[X5]P[dCha][Bta]F-NH2) | 50 to 200
